Measurements from PubChem BioAssay (NCI).
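Five compound concentrations were applied to cells in 96-well plates for 48 hours; endpoints were derived by simple linear interpolation of the resulting dose-response curve. TGI denotes the concentration required for complete inhibition of growth.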

How the values were obtained:
Assay in all cases: NCI-60 cell line screen, 48 h
LOX IMVI melanoma = tested on: LOX IMVI melanoma
BT-549 breast = tested on: BT-549 breast
786-0 renal = tested on: 786-0 renal
A498 renal = tested on: A498 renal
U251 CNS = tested on: U251 CNS
ACHN renal = tested on: ACHN renal
MDA-N = tested on: MDA-N
OVCAR-5 ovarian = tested on: OVCAR-5 ovarian
RPMI-8226 leukemia = tested on: RPMI-8226 leukemia
HT29 colon = tested on: HT29 colon
PC-3 prostate = tested on: PC-3 prostate
RXF 393 renal = tested on: RXF 393 renal
UACC-257 melanoma = tested on: UACC-257 melanoma
A549 NSCLC = tested on: A549 NSCLC
IGROV1 ovarian = tested on: IGROV1 ovarian
SNB-75 CNS = tested on: SNB-75 CNS
NCI/ADR-RES ovarian = tested on: NCI/ADR-RES ovarian
UO-31 renal = tested on: UO-31 renal
HL-60(TB) leukemia = tested on: HL-60(TB) leukemia
HS 578T breast = tested on: HS 578T breast
SF-268 CNS = tested on: SF-268 CNS
SK-OV-3 ovarian = tested on: SK-OV-3 ovarian
HOP-62 NSCLC = tested on: HOP-62 NSCLC
MCF7 breast = tested on: MCF7 breast
NCI-H226 lung = tested on: NCI-H226 lung
SK-MEL-2 melanoma = tested on: SK-MEL-2 melanoma
CCRF-CEM leukemia = tested on: CCRF-CEM leukemia
T-47D breast = tested on: T-47D breast
OVCAR-3 ovarian = tested on: OVCAR-3 ovarian
OVCAR-8 ovarian = tested on: OVCAR-8 ovarian
NCI-H460 lung = tested on: NCI-H460 lung
SK-MEL-28 melanoma = tested on: SK-MEL-28 melanoma
SF-295 CNS = tested on: SF-295 CNS
CAKI-1 renal = tested on: CAKI-1 renal
MDA-MB-231 breast = tested on: MDA-MB-231 breast
HOP-92 NSCLC = tested on: HOP-92 NSCLC
COLO 205 colon = tested on: COLO 205 colon
OVCAR-4 ovarian = tested on: OVCAR-4 ovarian
SK-MEL-5 melanoma = tested on: SK-MEL-5 melanoma
HCT-15 colon = tested on: HCT-15 colon
EKVX NSCLC = tested on: EKVX NSCLC
M14 melanoma = tested on: M14 melanoma
MOLT-4 leukemia = tested on: MOLT-4 leukemia
SF-539 CNS = tested on: SF-539 CNS
MALME-3M melanoma = tested on: MALME-3M melanoma
SNB-19 CNS = tested on: SNB-19 CNS
KM12 colon = tested on: KM12 colon
K-562 leukemia = tested on: K-562 leukemia
MDA-MB-435 = tested on: MDA-MB-435
SR leukemia = tested on: SR leukemia
TK-10 renal = tested on: TK-10 renal
DU-145 prostate = tested on: DU-145 prostate
HCT-116 colon = tested on: HCT-116 colon
NCI-H522 lung = tested on: NCI-H522 lung
SN12C renal = tested on: SN12C renal
SW-620 colon = tested on: SW-620 colon
UACC-62 melanoma = tested on: UACC-62 melanoma
NCI-H23 lung = tested on: NCI-H23 lung
HCC-2998 colon = tested on: HCC-2998 colon

SMILES: COc1ccc(/C=C/c2nsc(/C=C/c3ccc(OC)cc3)n2)cc1
- TGI (LOX IMVI melanoma): > 100 µM
- TGI (BT-549 breast): > 100 µM
- TGI (786-0 renal): 41.8 µM
- TGI (A498 renal): > 100 µM
- TGI (U251 CNS): > 100 µM
- TGI (ACHN renal): > 100 µM
- TGI (MDA-N): > 100 µM
- TGI (OVCAR-5 ovarian): > 100 µM
- TGI (RPMI-8226 leukemia): > 100 µM
- TGI (HT29 colon): > 100 µM
- TGI (PC-3 prostate): > 100 µM
- TGI (RXF 393 renal): > 100 µM
- TGI (UACC-257 melanoma): > 100 µM
- TGI (A549 NSCLC): > 100 µM
- TGI (IGROV1 ovarian): > 100 µM
- TGI (SNB-75 CNS): > 100 µM
- TGI (NCI/ADR-RES ovarian): > 100 µM
- TGI (UO-31 renal): > 100 µM
- TGI (HL-60(TB) leukemia): > 100 µM
- TGI (HS 578T breast): > 100 µM
- TGI (SF-268 CNS): > 100 µM
- TGI (SK-OV-3 ovarian): > 100 µM
- TGI (HOP-62 NSCLC): > 100 µM
- TGI (MCF7 breast): > 100 µM
- TGI (NCI-H226 lung): > 100 µM
- TGI (SK-MEL-2 melanoma): > 100 µM
- TGI (CCRF-CEM leukemia): > 100 µM
- TGI (T-47D breast): > 100 µM
- TGI (OVCAR-3 ovarian): > 100 µM
- TGI (OVCAR-8 ovarian): > 100 µM
- TGI (NCI-H460 lung): 88.7 µM
- TGI (SK-MEL-28 melanoma): > 100 µM
- TGI (SF-295 CNS): > 100 µM
- TGI (CAKI-1 renal): > 100 µM
- TGI (MDA-MB-231 breast): > 100 µM
- TGI (HOP-92 NSCLC): > 100 µM
- TGI (COLO 205 colon): > 100 µM
- TGI (OVCAR-4 ovarian): > 100 µM
- TGI (SK-MEL-5 melanoma): > 100 µM
- TGI (HCT-15 colon): > 100 µM
- TGI (EKVX NSCLC): > 100 µM
- TGI (M14 melanoma): > 100 µM
- TGI (MOLT-4 leukemia): > 100 µM
- TGI (SF-539 CNS): > 100 µM
- TGI (MALME-3M melanoma): > 100 µM
- TGI (SNB-19 CNS): > 100 µM
- TGI (KM12 colon): > 100 µM
- TGI (K-562 leukemia): > 100 µM
- TGI (MDA-MB-435): > 100 µM
- TGI (SR leukemia): > 100 µM
- TGI (TK-10 renal): > 100 µM
- TGI (DU-145 prostate): > 100 µM
- TGI (HCT-116 colon): > 100 µM
- TGI (NCI-H522 lung): > 100 µM

SMILES: O=C1C=CC(=O)c2c(O)c(N3CCN(c4ccccn4)CC3)c(Cl)c(O)c21
- TGI (LOX IMVI melanoma): 0.299 µM
- TGI (BT-549 breast): 3.43 µM
- TGI (786-0 renal): 1.71 µM
- TGI (A498 renal): 9.68 µM
- TGI (ACHN renal): 6.51 µM
- TGI (MDA-N): 2.81 µM
- TGI (OVCAR-5 ovarian): 17.9 µM
- TGI (HT29 colon): 2.05 µM
- TGI (PC-3 prostate): 4.48 µM
- TGI (RXF 393 renal): 3.16 µM
- TGI (UACC-257 melanoma): 3.87 µM
- TGI (A549 NSCLC): 11.8 µM
- TGI (IGROV1 ovarian): 3.22 µM
- TGI (SNB-75 CNS): 3.43 µM
- TGI (NCI/ADR-RES ovarian): 8.98 µM
- TGI (UO-31 renal): 3.68 µM
- TGI (HL-60(TB) leukemia): 0.692 µM
- TGI (HS 578T breast): 4.97 µM
- TGI (SN12C renal): 3.36 µM
- TGI (SF-268 CNS): 7.44 µM
- TGI (SK-OV-3 ovarian): 21.2 µM
- TGI (HOP-62 NSCLC): 9.58 µM
- TGI (MCF7 breast): 3.01 µM
- TGI (NCI-H226 lung): 10.2 µM
- TGI (SW-620 colon): 1.94 µM
- TGI (CCRF-CEM leukemia): 1.84 µM
- TGI (T-47D breast): 3.07 µM
- TGI (OVCAR-3 ovarian): 4 µM
- TGI (OVCAR-8 ovarian): 6.25 µM
- TGI (NCI-H460 lung): 8.53 µM
- TGI (SK-MEL-28 melanoma): 3.37 µM
- TGI (SF-295 CNS): 10.7 µM
- TGI (CAKI-1 renal): 4.55 µM
- TGI (UACC-62 melanoma): 2.01 µM
- TGI (NCI-H23 lung): 2.45 µM
- TGI (MDA-MB-231 breast): 3.55 µM
- TGI (HOP-92 NSCLC): 2.72 µM
- TGI (COLO 205 colon): 2.8 µM
- TGI (OVCAR-4 ovarian): 3.02 µM
- TGI (SK-MEL-5 melanoma): 2.95 µM
- TGI (HCT-15 colon): 2.48 µM
- TGI (EKVX NSCLC): 19.6 µM
- TGI (M14 melanoma): 2.85 µM
- TGI (MOLT-4 leukemia): 2.01 µM
- TGI (SF-539 CNS): 3.2 µM
- TGI (MALME-3M melanoma): 3.05 µM
- TGI (SNB-19 CNS): 18 µM
- TGI (HCC-2998 colon): 5.99 µM
- TGI (KM12 colon): 7.02 µM
- TGI (MDA-MB-435): 9.29 µM
- TGI (SR leukemia): 4.96 µM
- TGI (TK-10 renal): 4.94 µM
- TGI (DU-145 prostate): 10.5 µM
- TGI (HCT-116 colon): 3.25 µM
- TGI (NCI-H522 lung): 3.5 µM
